Experimental data from ChEMBL document CHEMBL4706474, “Tetrahydro-2-naphthyl and 2-Indanyl Triazolopyrimidines Targeting Plasmodium falciparum Dihydroorotate Dehydrogenase Display Potent and Selective Antimalarial Activity” (J Med Chem, 2016).
pEC50, pIC50: −log10 of the molar value. In brackets after ≈: the same amount, converted by molar mass.

How the values were obtained:
[1] = Intrinsic clearance in rat liver microsomes assessed per mg protein at 1 uM by LC-MS analysis; format: ADME, Microsome; conditions: microsomes, 1 µM
[2] = biological target: Dihydroorotate dehydrogenase (quinone), mitochondrial (Homo sapiens, UniProt Q02127); assay: Inhibition of N-terminal His6-tagged human DHODH expressed in Escherichia coli BL21 using L-DHO as substrate and CoQ as co-substrate by DCIP dye based spectrophotometric assay
Dihydroorotate dehydrogenase (quinone), mitochondrial, sequence (Q02127 whole entry): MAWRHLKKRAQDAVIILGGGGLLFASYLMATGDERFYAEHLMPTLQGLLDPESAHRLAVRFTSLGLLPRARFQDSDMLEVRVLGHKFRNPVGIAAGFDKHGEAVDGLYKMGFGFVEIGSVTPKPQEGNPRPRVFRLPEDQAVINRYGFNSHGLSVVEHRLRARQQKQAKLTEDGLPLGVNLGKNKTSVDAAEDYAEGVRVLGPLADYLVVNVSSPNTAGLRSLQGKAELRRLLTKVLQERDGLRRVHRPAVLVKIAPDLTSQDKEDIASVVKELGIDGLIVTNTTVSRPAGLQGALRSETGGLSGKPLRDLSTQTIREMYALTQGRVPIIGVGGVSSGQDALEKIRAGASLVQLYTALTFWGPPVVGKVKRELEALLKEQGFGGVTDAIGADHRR

[3] = Inhibition of N-terminal His6-tagged Plasmodium falciparum DHODH expressed in Escherichia coli BL21 using L-DHO as substrate and CoQ as co-substrate by DCIP dye based spectrophotometric assay
[4] = Intrinsic clearance in mouse liver microsomes at 1 uM by LC-MS analysis; format: ADME, Microsome
Plasmodium falciparum [5] = assay: Antiplasmodial activity against Plasmodium falciparum 3D7 infected in RBC assessed as reduction in parasitemia incubated for 72 hrs by SYBR green dye-based assay; format: functional, organism-based
[6] = Inhibition of N-terminal His6-tagged Plasmodium vivax DHODH expressed in Escherichia coli BL21 using L-DHO as substrate and CoQ as co-substrate by DCIP dye based spectrophotometric assay
[7] = Lipophilicity, logD of the compound at pH 7.4; format: physicochemical; conditions: buffer
[8] = Intrinsic clearance in human pooled liver microsomes assessed per mg protein at 1 uM by LC-MS analysis; format: ADME, Microsome; conditions: microsomes, 1 µM
[9] = Kinetic solubility of compound in phosphate buffer at pH 6.5 measured after 30 mins by HPLC-UV based analysis; format: physicochemical; conditions: for solubility kinetic at 0.5 h: phosphate buffer, pH 6.5, read-out: Kinetic_solubility
Plasmodium falciparum [10] = assay: Antiplasmodial activity against Plasmodium falciparum 3D7 infected in NSG mouse assessed as blood AUC level require to show 90% reduction in parasitemia administered orally on day 3 post-infection QD for 4 days and measured after 24 hrs post dose by LC-MS/MS analysis; format: functional, organism-based; conditions: time 4.0 day
Plasmodium falciparum [11] = assay: Antiplasmodial activity against Plasmodium falciparum 3D7 infected in po dosed NSG mouse assessed as reduction in parasitemia administered twice daily for 4 consecutive days starting from day 3 post-infection and measured 24 hrs post last dose by flow cytometric analysis; format: functional; conditions: 3D7, po, 96 h, time 4 day
Plasmodium falciparum [12] = assay: Antiplasmodial activity against Plasmodium falciparum 3D7 infected in po dosed NSG mouse assessed as blood AUC level require to show 90% reduction in parasitemia administered once daily for 4 consecutive days starting from day 3 post-infection and measured 24 hrs post last dose by flow cytometric analysis; format: functional, organism-based; conditions: time 4.0 day
[13] = Plasmodium falciparum, 3D7, Erythrocyte, 72 h

Row | Structure (SMILES) | Intrinsic clearance in rat liver microsomes (uL/min/mg protein) [1] [µL/min] | pIC50 [2] | pIC50 [3] | intrinsic clearance [4] [µL/min] | pEC50 (Plasmodium falciparum [5]; [13]) | pIC50 [6] | logD [7] | microsomal intrinsic clearance [8] [µL/min] | solubility kinetic at 0.5 h [9] [µg/mL] | pEC50 (Plasmodium falciparum [5]; rbc) | also measured
1 | Cc1cc(NC2Cc3c(F)ccc(F)c3C2)n2nc(C(C)(F)F)nc2n1 | 1013 | < 4.00 | 7.19 | 1500 | 7.34 | 6.82 | 3.2 | 33 | 6.3 (≈ 17.2 µM) |  | 
2 | Cc1cc(NC2CCc3ccccc3C2)n2nc(C(F)(F)F)nc2n1 (centres undefined) |  | < 4.00 | 6.77 |  | 7.68 |  |  |  |  |  | 
3 | Cc1cc(NC2CCc3cc(Cl)ccc3C2)n2nc(C(C)(F)F)nc2n1 (stereo in doubt) |  |  |  |  |  |  |  |  |  |  | AUCED90 (Plasmodium falciparum [10]): > 23 µM.hr/day
4 | Cc1cc(NC2CCc3ccccc3C2)n2nc(C(C)(F)F)nc2n1 (centres undefined) |  |  | 7.68 |  | 8.55 | 7.46 |  |  |  |  | 
5 | Cc1cc(NC2CCc3cc(C(F)(F)F)c(F)cc3C2)n2nc(C(C)(F)F)nc2n1 (centres undefined) | < 7 | < 4.00 | 7.06 | < 7 | 5.48 | 6.09 | 4.1 | < 7 | 1.6 (≈ 3.73 µM) |  | 
6 | Cc1cc(NC2Cc3cccc(C(F)(F)F)c3C2)n2nc(C(C)(F)F)nc2n1 (centres undefined) | 61 | < 4.00 | 7.18 | 119 | 8.37 | 6.55 | 3.7 | 30 | 6.3 (≈ 15.9 µM) |  | 
7 | Cc1cc(NC2CCc3ccc(Br)cc3C2)n2nc(C(C)(F)F)nc2n1 (stereo in doubt; 14) |  |  | 6.19 |  |  |  |  |  |  | 5.85 | 
8 | Cc1cc(NC2Cc3ccc(Br)cc3C2)n2nc(C(C)(F)F)nc2n1 (centres undefined) |  |  | 6.96 |  | 6.23 |  |  |  |  |  | 
9 | Cc1cc(NC2Cc3cc(Cl)c(Cl)cc3C2)n2nc(C(C)(F)F)nc2n1 |  |  | 6.85 |  | 6.24 |  |  |  |  |  | 
10 | Cc1cc(NC2CCc3ccc(Cl)cc3C2)n2nc(C(F)(F)F)nc2n1 (stereo in doubt; 25) |  |  | 5.96 |  |  |  |  |  |  | 5.82 | 
11 | Cc1cc(NC2Cc3cccc(F)c3C2)n2nc(C(C)(F)F)nc2n1 (centres undefined) | 72 | < 4.00 | 7.28 | 76 | 7.19 | 6.52 | 3.3 | 11 | 12.5 (≈ 36 µM) |  | 
12 | Cc1cc(NC2CCc3cc(Br)ccc3C2)n2nc(C(C)(F)F)nc2n1 (stereo in doubt; 12) |  |  | 6.10 | 40 |  | 5.68 |  | < 7 |  | 6.85 | Kinetic_solubility ([9]; buffer, pH 6.5, 0.5 h): 3.1 µg/mL
13 | Cc1cc(NC2Cc3c(C)ccc(C)c3C2)n2nc(C(C)(F)F)nc2n1 | 178 | < 4.00 | 7.85 | 1000 | 9.41 | 7.62 | 3.8 | 168 | 6.3 (≈ 17.6 µM) |  | 
14 | Cc1cc(NC2CCc3cc(F)ccc3C2)n2nc(C(F)(F)F)nc2n1 (centres undefined) |  |  | 7.11 |  | 7.18 | 6.55 |  |  |  |  | 
15 | Cc1cc(NC2Cc3ccc(Cl)cc3C2)n2nc(C(C)(F)F)nc2n1 (centres undefined) | 54 |  | 7.07 | 43 | 6.92 |  | 3.5 | 10 | 6.3 (≈ 17.3 µM) |  | 
16 | Cc1cc(NC2CCc3cc(F)c(C(F)(F)F)cc3C2)n2nc(C(C)(F)F)nc2n1 (centres undefined) | 13 | < 4.00 | 7.05 | 17 | 7.01 | 6.41 | 4 | < 7 | 3.1 (≈ 7.22 µM) |  | 
17 | Cc1cc(NC2CCc3cc(F)ccc3C2)n2nc(C(C)(F)F)nc2n1 (centres undefined) | 39 | < 4.00 |  | 122 |  |  | 3.5 | 14 | 6.3 (≈ 17.4 µM) |  | 
18 | Cc1cc(NC2CCc3cc(F)c(F)cc3C2)n2nc(C(C)(F)F)nc2n1 (stereo in doubt; 18) |  |  | 5.64 |  |  |  |  |  |  | < 5.60 | 
19 | COc1ccc2c(c1)CC(Nc1cc(C)nc3nc(C(C)(F)F)nn13)CC2 (stereo in doubt; 16) | 19 |  | 7.68 | 25 |  | 6.89 | 3.3 | 18 | 12.5 (≈ 33.5 µM) | 7.60 | 
20 | Cc1cc(NC2Cc3ccc(S(C)(=O)=O)cc3C2)n2nc(C(C)(F)F)nc2n1 (centres undefined) |  |  | 5.40 |  | 5.19 |  |  |  |  |  | 
21 | Cc1cc(NC2CCc3cc(Cl)ccc3C2)n2nc(C(C)(F)F)nc2n1 (stereo in doubt; 8) |  |  | 5.87 |  |  |  |  |  |  | 6.38 | 
22 | COc1ccc2c(c1)CC(Nc1cc(C)nc3nc(C(C)(F)F)nn13)CC2 (stereo in doubt; 17) |  |  | 6.00 |  |  |  |  |  |  | 6.19 | 
23 | Cc1cc(NC2CCc3ccc(Cl)cc3C2)n2nc(C(F)(F)F)nc2n1 (stereo in doubt; 24) |  |  | 7.82 | 24 |  |  | 4.1 | 9 | 1.6 (≈ 4.19 µM) | 7.48 | 
24 | COc1ccc2c(c1)CCC(Nc1cc(C)nc3nc(C(C)(F)F)nn13)C2 (centres undefined) |  | < 4.00 | 6.85 |  | 7.77 | 6.66 |  |  |  |  | 
25 | Cc1cc(NC2Cc3cc(F)c(F)cc3C2)n2nc(C(F)(F)F)nc2n1 |  |  | 6.92 |  | 6.82 |  |  |  |  |  | 
26 | Cc1cc(N[C@@H]2CCc3ccc(Cl)cc3C2)n2nc(C(C)(F)F)nc2n1 |  | < 4.00 | 6.10 |  | 5.55 |  |  |  |  |  | 
27 | CCN(CC)CCCC(C)Nc1ccnc2cc(Cl)ccc12 (centres undefined) [CHLOROQUINE] |  |  |  |  |  |  |  |  |  |  | ED90 (Plasmodium falciparum [11]): 4.3 mg/kg; AUCED90 (Plasmodium falciparum [12]): 3.1 µM.hr/day
28 | Cc1cc(NC2CCc3cc(F)c(F)cc3C2)n2nc(C(C)(F)F)nc2n1 (stereo in doubt; 19) | 24 |  | 7.22 | 59 |  | 7.15 |  | 11 |  | 7.66 | 
29 | Cc1cc(NC2Cc3ccc(S(=O)(=O)N(C)C)cc3C2)n2nc(C(C)(F)F)nc2n1 (centres undefined) |  |  | 5.10 |  |  |  |  |  |  |  | 
30 | Cc1cc(NC2Cc3ccccc3C2)n2nc(C(C)(F)F)nc2n1 | 245 | < 4.00 | 7.32 | 1004 | 7.44 |  | 3.1 | 24 | 25 (≈ 75.9 µM) |  | 
